The data set in a line: Solid stability testing (HPLC purity and XRPD). It is filed as physicochemical. The method, then: HPLC analysis were performed with an Agilent HPLC 1260 series instrument. HPLC method for stability testing is as follows:
Solid stability testing of Compound 3, Form D was evaluated at the conditions of 60° C. (capped) and 40° C./75% RH (open) for 7 days. Polymorphic form and purity were analyzed by XRPD and HPLC, respectively. […] (capped) and 40° C./75% RH (open) for 7 days.
Solid stability testing of Compound 4 Form B and Form D were evaluated at the conditions of 60° C. (vial close) and 40° C./75% RH (vial open) for 7 days. Polymorphic form and purity were checked by XRPD and HPLC, respectively.

With `Cc1n[nH]c2nc(-c3ccc(NS(=O)(=O)c4cc(F)ccc4F)c(F)c3)nc(NCCN(C)C)c12` [Compound 4 Form B], the Solid stability entry runs as follows: (40° C./75% RH (open), day 7) “partially converted to Form D”; (60° C. (close), 7 days) “chemically and physically stable”. The “Purity, Initial T0” value (HPLC, before storage) came to 99.47%. Besides, the “Purity - 7 days, 60° C.” value (HPLC, capped/closed vial, 7 days) turned out to be 99.41%. For the same molecule, the “Purity - 7 days, 40° C./75% RH” value (HPLC, open, 7 days) worked out at 99.18%. Besides, under “before storage”, the “XRPD, Initial T0” value was “Form B”. Further, the “XRPD - 7 days, 60° C.” value (capped/closed vial, 7 days) is reported as “Form B”.

Values taken from patent publication US20250320215A1, “SALTS OF N-[4-(4-[[2-(DIMETHYLAMINO)ETHYL]AMINO]-3-METHYL-1H-PYRAZOLO[3,4-D]PYRIMIDIN-6-YL)-2-FLUOROPHENYL]-2,5-DIFLUOROBENZENESULFONAMIDE AND CRYSTALLINE FORMS THEREOF” (THRYV THERAPEUTICS INC, priority 2022, published 2025).
